ChEMBL document CHEMBL1255263, “Activity of the Diaminopyrimidine AR-709 against recently collected multidrug-resistant isolates of invasive Streptococcus pneumoniae from North America” (2008)
In brackets after ≈: the same amount, converted by molar mass.

Key:
Streptococcus pneumoniae [1] = test: Antibacterial activity against multidrug resistant Streptococcus pneumoniae […] assessed as resistant strains by CLSI microdilution susceptibility testing method; assay type: functional
Streptococcus pneumoniae [2] = test: Antibacterial activity against multidrug resistant Streptococcus pneumoniae […] by CLSI microdilution susceptibility testing method; assay type: functional

Compound CO/N=C(\C(=O)N[C@@H]1C(=O)N2C(C(=O)O)=C(COC(C)=O)CS[C@H]12)c1csc(N)n1 [CEFOTAXIME] has an Activity (Streptococcus pneumoniae [1]) of 41.1%, an MIC50 (Streptococcus pneumoniae [2]) of 1 µg/mL (≈ 2.2 µM) and an MIC90 (Streptococcus pneumoniae [2]) of 2 µg/mL (≈ 4.39 µM).

Work on CC1(C)S[C@@H]2[C@H](NC(=O)Cc3ccccc3)C(=O)N2[C@H]1C(=O)O [PENICILLIN G] yielded an Activity (Streptococcus pneumoniae [1]) of 85.7%, an MIC50 (Streptococcus pneumoniae [2]) of 4 µg/mL (≈ 12 µM) and an MIC90 (Streptococcus pneumoniae [2]) of 4 µg/mL (≈ 12 µM).

Work on C[C@H]1c2cccc(O)c2C(=O)C2=C(O)[C@]3(O)C(=O)C(C(N)=O)=C(O)[C@@H](N(C)C)[C@@H]3[C@@H](O)[C@@H]21.O [DOXYCYCLINE] yielded an Activity (Streptococcus pneumoniae [1]) of 40.6%, an MIC50 (Streptococcus pneumoniae [2]) of 0.12 µg/mL and an MIC90 (Streptococcus pneumoniae [2]) of 8 µg/mL.

Work on CC[C@H]1OC(=O)[C@H](C)[C@@H](O[C@H]2C[C@@](C)(OC)[C@@H](O)[C@H](C)O2)[C@H](C)[C@@H](O[C@@H]2O[C@H](C)C[C@H](N(C)C)[C@H]2O)[C@](C)(O)C[C@@H](C)C(=O)[C@H](C)[C@@H](O)[C@]1(C)O [ERYTHROMYCIN] yielded an Activity (Streptococcus pneumoniae [1]) of 83.5%, an MIC50 (Streptococcus pneumoniae [2]) of 8 µg/mL (≈ 10.9 µM) and an MIC90 (Streptococcus pneumoniae [2]) greater than 32 µg/mL.

For C[C@H]1COc2c(N3CCN(C)CC3)c(F)cc3c(=O)c(C(=O)O)cn1c23.C[C@H]1COc2c(N3CCN(C)CC3)c(F)cc3c(=O)c(C(=O)O)cn1c23.O [LEVOFLOXACIN], the Activity (Streptococcus pneumoniae [1]) was 21%, the MIC50 (Streptococcus pneumoniae [2]) was 1 µg/mL and the MIC90 (Streptococcus pneumoniae [2]) was greater than 8 µg/mL.

For COc1cc(Cc2cnc(N)nc2N)c2cc(Cc3c(C(=O)N(C)C)[nH]c4ccc(Cl)cc34)oc2c1OC, the MIC50 (Streptococcus pneumoniae [2]) was 0.25 µg/mL (≈ 0.467 µM) and the MIC90 (Streptococcus pneumoniae [2]) was 0.5 µg/mL (≈ 0.935 µM).

CCC[C@@H]1C[C@@H](C(=O)N[C@@H]([C@H]2O[C@H](SC)[C@H](O)[C@@H](O)[C@H]2O)[C@H](C)Cl)N(C)C1 [CLINDAMYCIN] was tested, and the Activity (Streptococcus pneumoniae [1]) was 34.8%, the MIC50 (Streptococcus pneumoniae [2]) was 0.06 µg/mL (≈ 0.141 µM) and the MIC90 (Streptococcus pneumoniae [2]) was greater than 8 µg/mL.

CC1(C)S[C@@H]2[C@H](NC(=O)[C@H](N)c3ccc(O)cc3)C(=O)N2[C@H]1C(=O)O [AMOXICILLIN] was tested, and the Activity (Streptococcus pneumoniae [1]) was 48.2%, the MIC50 (Streptococcus pneumoniae [2]) was 2 µg/mL (≈ 5.47 µM) and the MIC90 (Streptococcus pneumoniae [2]) was 8 µg/mL (≈ 21.9 µM).

C[C@@H](O)[C@H]1C(=O)N2C(C(=O)O)=C(S[C@@H]3CN[C@H](C(=O)N(C)C)C3)[C@H](C)[C@H]12 [MEROPENEM] gave an Activity (Streptococcus pneumoniae [1]) of 75.9%, an MIC50 (Streptococcus pneumoniae [2]) of 0.5 µg/mL (≈ 1.3 µM) and an MIC90 (Streptococcus pneumoniae [2]) of 1 µg/mL (≈ 2.61 µM).
